{
  "source": "patent US6720345B1",
  "about": "“Semicarbazone derivatives and their use as thrombopoietin mimetics” (SmithKline Beecham Corporation, priority 1999, dated 2004)",
  "biological_target": "T1, TPO receptor (Homo sapiens, UniProt P40238)",
  "T1 construct": "expressed in transfected cells; host or cells: murine BaF3 cells (TPO-responsive line)",
  "T1 sequence (P40238 26-635)": "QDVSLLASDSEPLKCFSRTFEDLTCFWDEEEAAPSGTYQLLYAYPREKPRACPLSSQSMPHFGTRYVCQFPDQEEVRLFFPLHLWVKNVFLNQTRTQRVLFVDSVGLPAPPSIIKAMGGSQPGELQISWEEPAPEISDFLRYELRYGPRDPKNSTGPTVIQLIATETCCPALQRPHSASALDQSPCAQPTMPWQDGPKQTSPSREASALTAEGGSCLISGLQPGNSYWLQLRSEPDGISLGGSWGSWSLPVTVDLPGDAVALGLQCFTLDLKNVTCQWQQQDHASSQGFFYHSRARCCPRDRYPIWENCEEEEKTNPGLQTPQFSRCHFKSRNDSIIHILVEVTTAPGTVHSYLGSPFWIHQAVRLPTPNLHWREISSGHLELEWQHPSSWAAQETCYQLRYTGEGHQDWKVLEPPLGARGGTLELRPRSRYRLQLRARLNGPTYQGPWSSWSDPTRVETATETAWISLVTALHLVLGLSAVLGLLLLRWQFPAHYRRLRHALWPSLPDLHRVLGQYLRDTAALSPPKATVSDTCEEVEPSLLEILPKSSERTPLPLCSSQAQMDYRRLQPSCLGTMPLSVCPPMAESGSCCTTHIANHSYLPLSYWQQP",
  "assay": "Luciferase assay in TPO-responsive BaF3 cell line",
  "assay_type": "cell-based, murine",
  "conditions": "at a concentration of 10 uM",
  "protocol": "Compounds of the present invention were tested for potency as mimetics of the TPO receptor in a Luciferase assay such as described in Lamb, et al., Nucleic Acids Research 23: 3283-3289 (1995) and Seidel, et al., Proc. Natl. Acad. Sci., USA 92: 3041-3045 (1995) by substituting a TPO-responsive BaF3 cell line (Vigon et al. Proc. Natl. Acad. Sci. USA 1992, 89, 5640-5644) for the HepG2 cells utilized therein. The murine BaF3 cells express TPO receptors and closely match the pattern of STAT (signal transducers and activators of transcription) activation observed in primary murine and human bone marrow cells in response to TPO.",
  "data": [
    {"smiles": "O=C1CSC(=S)N1N=Cc1cc(Br)cc(Br)c1O", "note": "[Compound A, 3-[(2-hydroxy-3,5-dibromophen-1-yl)methyleneamino]-2-thioxothiazolidin-4-one]", "values": [
      {"measurement": "activation, % of control (control is the maximal response to TPO)", "result": "about 9 % of control"}
    ]}
  ]
}
